Where two headings read alike, the source gives them in different places.
Tests used:
[1] = Cytotoxicity assay, alamarBlue; format: cell-based; conditions: mouse, 37 °C, mean ± SD, read-out: Murine Macrophage J774.A1 CC50
Procedure: (§1) Evaluation of in vitro toxicity was carried out using the murine macrophage J774A.1 cell line (ATCC # TIB-67, LG Promochem, Barcelona, Spain) which was routinely cultured in Dulbecco’s Modified Eagle’s medium (DMEM, w/v) supplemented with 10% (v/v) FBS and 10 µg/mL of gentamicin (Sigma–Aldrich, Madrid, Spain), at 37 °C in a 5% CO2 atmosphere as previously described.
(§2) Cytotoxicity of the compounds was evaluated using toxicity assays established in our laboratory based on the evaluation of the toxicity induced in a murine macrophages J774.A1 cell line (ATCC® TIB-67™). Concisely, different concentrations of the ICZs were incubated with the cell line, and alamarBlue® reagent (10% of medium volume) was placed in each well and incubated for 24 h, at 37 °C under 5% CO2 conditions. Results were examined as described in Section 2.4.1.

[2] = test system: Naegleria fowleri ATCC 30808 trophozoites; test: In vitro amoebicidal activity, alamarBlue colorimetric assay, trophozoites; conditions: for SI (CC50/IC50): CC50 J774A.1 / IC50 N. fowleri ATCC 30808; for IC50: Naegleria fowleri
Procedure: (§3) Amoebae were grown at 37 °C in axenic conditions in 2% (w/v) bactocasitone medium (Thermo Fisher Scientific, Madrid, Spain) supplemented with 10% (v/v) foetal bovine serum (FBS), […] of penicillin G and 0,5 mg/mL of streptomycin sulphate (Sigma-Aldrich, Madrid, Spain). As required by the Spanish Government biosafety guidelines for this pathogen, amoebic strains were cultured in a biological security facility level 3 at the Instituto Universitario de Enfermedades Tropicales y Salud Pública de Canarias, Universidad de La Laguna.
(§4) The in vitro activity of the four ICZs included in this study was evaluated against trophozoites of two Naegleria fowleri type strains using a colorimetric assay. Amoebae (2 × 10^5 cells/mL) were placed in a sterile 96-well microtiter plate. Next, 50 μL of a serial dilution of each of the ICZs (in N. fowleri culture medium) was added to the plate. In all the activity assays, 2% DMSO was used to dissolve the highest dose of the molecules to prevent generation of any effects in the amoebic cells. Negative controls were also included in the assays, consisting of the addition of medium alone to the seeded trophozoites as previously described. Miltefosine and amphotericin B were used as positive controls whereas the addition of medium alone to the seeded trophozoites was considered as the negative control. Lastly, 10% of the alamarBlue® reagent was placed in each well, and plates were incubated with slight agitation for 48 h at 37 °C. After that, activity plates were evaluated with an EnSpire® Multimode Plate Reader (Perkin Elmer, Madrid, Spain) using a wavelength of 570 nm and a reference wavelength of 630 nm.
(§5) The IC90 values of the compounds were calculated using a GraphPad calculator (GraphPad Software, San Diego, CA, USA) based on the calculated IC50 and the Hill Slope (H). All experiments were performed in triplicate, and the mean values were also calculated.

[3] = test system: Naegleria fowleri ATCC 30215 trophozoites; test: as above; format: cell-based; conditions: for IC50: ATCC30215, trophozoites, 48 h, 37 °C, mean ± SD, read-out: N. fowleri ATCC 30215 IC50
Procedure: as §3, §4, §5

[4] = test system: murine macrophage J774A.1 cell line; test: Cytotoxicity assay, alamarBlue; format: cell-based; conditions: 24 h, 37 °C, mean ± SD; read-out: Murine Macrophage J774.A1 CC50
Procedure: as §1, §2

[5] = test system: Naegleria fowleri trophozoites; test: Detection of DNA/chromatin condensation, Hoechst 33342/propidium iodide double stain; format: cell-based; conditions: IC90, 24 h; similar for both strains
From the text: The double-stain apoptosis detection kit constituted by Hoechst 33342 and propidium iodide (PI) (Life Technologies, Madrid. Spain) and an EVOS FL Cell Imaging System AMF4300 (Life Technologies, Madrid, Spain) were used in these experiments as per the manufacturer’s instructions. […] The assay is able to separate three groups of cell populations: dead cells which show an intense red and low-blue fluorescence; healthy cells showing a low level of fluorescence, and cells in PCD presenting intense blue fluorescence (condensed chromatin/DNA).

[6] = test system: Naegleria fowleri trophozoites; test: Cellular membrane damage, SYTOX Green assay; format: cell-based; conditions: IC90, 24 h; both strains
Procedure: The SYTOX Green assay (Life Technologies, Madrid, Spain) allows the detection of alterations in the permeability of the cell membrane. The SYTOX Green dye binds to DNA, showing intense green fluorescence, only if the plasmatic membrane is damaged and allows it to enter the cytoplasm. […] After 24 h, 1 μM SYTOX Green (final concentration) was added to the cell culture and incubated for 15 min. Next, cells were examined in an EVOS FL Cell Imaging System AMF4300 (Life Technologies, Madrid, Spain).

[7] = test system: Naegleria fowleri trophozoites; test: Mitochondrial membrane potential, JC-1 assay; format: cell-based; conditions: IC90, 24 h; similar for both strains
Procedure: The evaluation of mitochondrial function disruption in STS-treated amoebae was carried out using the Celltiter-Glo® Luminescent Cell Viability Assay (Promega Biotech Ibérica, Madrid, Spain) and the JC-1 Mitochondrial Membrane Potential Detection Kit (Cayman Chemicals, Vitro SA, Madrid, Spain). The first kit detects the levels of ATP in STS-treated cells in comparison to non-treated cells.
Images were captured using an EVOS FL Cell Imaging System AMF4300 (Life Technologies, Madrid, Spain). The obtained staining pattern permitted the identification of two groups in a cellular population: live cells which would show only red fluorescence and cells presenting low mitochondrial membrane potential (undergoing PCD) which would show an intense level of green and red fluorescence.

[8] = test system: Naegleria fowleri trophozoites; test: Intracellular ROS generation, CellROX Deep Red assay; format: cell-based; conditions: IC90, 24 h; similar for both strains
Procedure: Next, cells were exposed to 5 μM CellROX Deep Red for 30 min at 37 °C in the dark and observed after using the EVOS FL Cell Imaging System AMF4300 (Life Technologies, Madrid, Spain). The presence of intracellular ROS was shown by the detection of high red fluorescence in the cells.

[9] = ATCC30808, 48 h, read-out: N. fowleri ATCC 30808 IC50

SMILES | CC50 at 24 h ([1]; J774A.1 macrophage cell line) [nM] | Activity against N. fowleri, in words [2] | SI (CC50/IC50) [2] | IC50 [2, 9] [nM] | further results
CO[C@@H]1C(=O)C[C@H]2O[C@]1(C)n1c3ccccc3c3c4c(c5c6ccccc6n2c5c31)C(=O)NC4 [4′D4′OSTS (3), 4′-demethylamino-4′-oxostaurosporine] | > 20000 | only active against the N. fowleri ATCC 30808 strain | >1.9 | 10800 ± 2920 | 
CN[C@@H]1C[C@H]2O[C@@](C)([C@@H]1OC)n1c3ccccc3c3c4c(c5c6ccccc6n2c5c31)C(=O)NC4=O [7OSTS (2), 7-oxostaurosporine] |  |  | 4.1 | 1280 ± 350 | IC50 [3]: 1070 ± 230 nM; CC50 [4]: 5200 ± 1750 nM
C[C@@H]1[C@H](O)[C@@H](C)/C=C/C=C/C=C/C=C/C=C/C=C/C=C/[C@H](O[C@@H]2O[C@H](C)[C@@H](O)[C@H](N)[C@@H]2O)C[C@@H]2O[C@](O)(C[C@@H](O)C[C@@H](O)[C@H](O)CC[C@@H](O)C[C@@H](O)CC(=O)O[C@H]1C)C[C@H](O)[C@H]2C(=O)O [Amphotericin B] | ≥ 200000 |  | ≥1666.7 | 120 ± 30 | IC50 [3]: 160 ± 20 nM
O=C1NC(=O)c2c1c1c3ccccc3[nH]c1c1[nH]c3ccccc3c21 [Arcyriflavin A (9), arcyriaflavin A] |  | no activity was observed |  | > 20000 | 
COC(=O)C1(O)CC2OC1(C)n1c3ccccc3c3c4c(c5c6ccccc6n2c5c31)C(=O)NC4 (centres unmarked) [K252a (6), K252a] |  |  | 3.2 | 340 ± 90 | IC50 [3]: 120 ± 30 nM; CC50 at 24 h [1]: 1070 ± 210 nM; IC50 ([2]; ATCC30808, read-out: Activity (IC50) N. fowleri ATCC 30808, text): 338 ± 90 nM
CC12OC(CC1(O)C(=O)O)n1c3ccccc3c3c4c(c5c6ccccc6n2c5c31)CNC4=O (centres unmarked) [K252b (7), K252b] |  |  |  | > 20000 | 
O=C1NCc2c1c1c3ccccc3[nH]c1c1[nH]c3ccccc3c21 [K252c (8), K252c] |  | no activity was observed |  | > 20000 | 
CCCCCCCCCCCCCCCCOP(=O)([O-])OCC[N+](C)(C)C [Miltefosine, miltefosine] | 128000 ± 8850 |  | 3.3 |  | 
CO[C@H]1[C@H](O)[C@@H](O)[C@H](n2c3c(Cl)cccc3c3c4c(c5c6cccc(Cl)c6[nH]c5c32)C(=O)NC4=O)O[C@@H]1CO [Rebeccamycin (5), rebeccamycin] |  | not active |  | > 20000 | 
COC1=C(C)O[C@@H]2C[C@@]1(OC)n1c3ccccc3c3c4c(c5c6ccccc6n2c5c31)C(=O)NC4 [SCZ B (4), streptocarbazole B] | > 20000 | only active against the N. fowleri ATCC 30808 strain | >1.7 | 11500 ± 310 | 
CN[C@@H]1C[C@H]2O[C@@](C)([C@@H]1OC)n1c3ccccc3c3c4c(c5c6ccccc6n2c5c31)C(=O)NC4 [STS (1), staurosporine] |  |  |  |  | IC90 ([3]; ATCC30215, calculated from IC50 and Hill slope, table footnote, unit inferred, read-out: IC90 N. fowleri ATCC 30215): 970 nM; Chromatin condensation (Hoechst stain) [5]: the nuclei are intense blue; Plasmatic membrane permeabilization (SYTOX Green) [6]: caused plasmatic membrane permeabilization in both strains; Mitochondrial membrane potential (JC-1) [7]: Mitochondrial potential collapse was observed; Intracellular ROS (CellROX Deep Red) [8]: Increased levels of intracellular ROS

Reference: PMC7285321, “Evaluation of Indolocarbazoles from Streptomyces sanyensis as a Novel Source of Therapeutic Agents against the Brain-Eating Amoeba Naegleria fowleri” (Microorganisms, 2020)
